Laboratory results from article PMC13340911 (Archives of biochemistry and biophysics, 2025).
Residue numbers refer to the chain shown, from its start.

Columns and labels:
[1] = molecular target: T1, Nocturnin (NOCT) (Homo sapiens, UniProt Q9UK39, N149A); test: NADPH intrinsic fluorescence titration; format: binding
T1 sequence (Q9UK39 122-431 N149A): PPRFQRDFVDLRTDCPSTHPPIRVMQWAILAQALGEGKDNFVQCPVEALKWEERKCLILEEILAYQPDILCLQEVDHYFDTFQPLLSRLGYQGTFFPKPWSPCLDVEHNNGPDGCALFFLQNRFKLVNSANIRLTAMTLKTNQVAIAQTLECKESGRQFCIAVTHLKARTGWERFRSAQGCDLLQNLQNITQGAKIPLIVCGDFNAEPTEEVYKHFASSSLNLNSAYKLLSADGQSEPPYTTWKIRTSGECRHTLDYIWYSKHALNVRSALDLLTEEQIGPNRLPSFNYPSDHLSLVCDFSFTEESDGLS

[2] = molecular target: T2, Nocturnin (NOCT) (Homo sapiens, UniProt Q9UK39, H286N); test: NADPH intrinsic fluorescence titration; format: binding
T2 sequence (Q9UK39 122-431 H286N): T1 sequence (Q9UK39 122-431 N149A) with A28N, H165N

[3] = molecular target: T3, Nocturnin (NOCT) (Homo sapiens, UniProt Q9UK39, H414N); test: NADPH intrinsic fluorescence titration; format: binding
T3 sequence (Q9UK39 122-431 H414N): T1 sequence (Q9UK39 122-431 N149A) with A28N, H293N

[4] = molecular target: T4, Nocturnin (NOCT) (Homo sapiens, UniProt Q9UK39); test: NADPH intrinsic fluorescence titration; format: binding
T4 sequence (Q9UK39 122-431): T1 sequence (Q9UK39 122-431 N149A) with A28N

[5] = molecular target: T4, Nocturnin (NOCT); test: steady-state phosphatase kinetics of purified NOCT; format: biochemical

SMILES | Kd [1] [µM] | Kd [2] [µM] | Kd [3] [µM] | Kd [4] [µM] | steady-state phosphatase kinetics of purified NOCT (malachite green); value is k [5]
NC(=O)C1=CN([C@@H]2O[C@H](COP(=O)(O)OP(=O)(O)OC[C@H]3O[C@@H](n4cnc5c(N)ncnc54)[C@H](OP(=O)(O)O)[C@@H]3O)[C@@H](O)[C@H]2O)C=CC1 [NADPH] | 473 | 219 | 338 | 308 | –
NC(=O)c1ccc[n+]([C@@H]2O[C@H](COP(=O)(O)OP(=O)(O)OC[C@H]3O[C@@H](n4cnc5c(N)ncnc54)[C@H](OP(=O)(O)O)[C@@H]3O)[C@@H](O)[C@H]2O)c1 [NADP^+] | – | – | – | – | 78
